Measured values from ChEMBL document CHEMBL1159334, “Agastinol and agastenol, novel lignans from Agastache rugosa and their evaluation in an apoptosis inhibition assay” (J Nat Prod, 2002).
In brackets after ≈: the same amount, converted by molar mass.

Tested on: U-937
Assay: Inhibition of etoposide-induced caspase 3 induction in human U937 cells after 7 hrs
Assay type: functional, cell-based
Conditions: U-937, 7 h

| IC50 | Structure (SMILES) |
| --- | --- |
| 11.4 µg/mL (≈ 23.8 µM) | COc1cc(/C=C2/CO[C@@H](c3ccc(O)c(OC)c3)[C@@H]2COC(=O)c2ccc(O)cc2)ccc1O [AGASTENOL] |
| 15.2 µg/mL (≈ 31.6 µM) | COc1cc(C[C@@H]2CO[C@@H](c3ccc(O)c(OC)c3)[C@@H]2COC(=O)c2ccc(O)cc2)ccc1O [AGASTINOL] |
